Source: US20120315290A1, “INHIBITORS OF LL-37 MEDIATED IMMUNE REACTIVITY TO SELF NUCLEIC ACIDS” (BOARD OF REGENTS, THE UNIVERSITY OF TEXAS SYSTEM, priority 2006, published 2012)
Entries after “also recorded” stand apart in the source; their conditions may differ. Where no end group is shown, it is not given here.

Assays:
[1] = tested on: plasmacytoid dendritic cells (pDC); experiment: IFN-α and cytokine production by purified human pDC (ELISA of supernatants); assay type: cell-based; settings: for pDC activation to produce IFN-α: substance alone added to purified pDC
Text: (§1) PDC from healthy donors were purified from freshly collected buffy coats. Briefly, PBMC were isolated by Ficoll-Hypaque density gradient centrifugation (GE Healthcare, Piscatway, N.J.) followed by positive sorting using anti-BDCA4-conjugated magnetic microbeads (Miltenyi Biotec, Auburn, Calif.). The recovered cells were stained with PE-Cy5-conjugated anti-CD4, APC-conjugated CD11c, and a cocktail of FITC-conjugated anti-CD3, anti-CD14, anti-CD16, anti-CD15, anti-CD20 and anti-CD56 (Lineage-FITC) (BD Pharmingen, San Diego, Calif.). The CD4+CD11c-Lin- (pDC precursors) were isolated by cell sorting. Purity was routinely >99%. PDC (5-10×10^4/well) were cultured in 96-well round-bottom plates in RPMI 1640 (GIBCO, Carlsbad, Calif.) supplemented with 10% FCS (Atlanta Biologicals, Lawrenceville, Ga.). Where indicated, pDC were stimulated with CpGA (1 μM), CpGB (1 μM), R837 (10 ug/ml), IRS (4 uM), non-CpG sequence (4 uM), and different concentrations of LL-37 and of human genomic DNA. To prepare LL-37.DNA complexes, CpGB, huDNA, non-CpG and LL-37 were mixed by inversion and incubated for 30 min at room temperature before being added to the cells.
(§2) Supernatants samples were taken after 18-24 h after addition of the stimuli. Human IFN-α was measured using a human IFN-α ELISA kit (PBL Biomedical Laboratories, New Brunswick, N.J.) according to the company's instructions. IL-6 and TNF-α were detected using a kit for human IL6 and TNF-α (R&D Systems), respectively.

[2] = tested on: LL-37-mediated activation of pDC; experiment: Inhibition of LL-37-mediated IFN-α induction in pDC; assay type: cell-based, human; settings: pDC stimulated with LL-37 (10 μM) in presence of the substance
Protocol: (§3) (A) pDC were stimulated with LL-37 (10 μM) in the presence of pertussis toxin (PTX) or KN62 to block the FPRL-1 and the P2X pathway respectively. Furthermore agonistic W peptide and ATP were used to stimulate these pathways on pDC. (B) pDC were stimulated with LL-37 (10 μM) in the presence of increasing concentrations of chloroquine to block the endosomal TLR pathway. (C) PDC were pre-treated DNase I, TLR-9 inhibitor (IRS, 4 μM) or ctrl ODN sequences for 30 min and followed by incubation with LL-37 (10 μM), CpG 2216 (CpGA, 1 μM) or imiquimod (R837,10 μg/ml) for 24 h (A). The culture supernatants were analyzed for IFN-α production by ELISA. One representative experiment of three is shown.
Heparin (an anionic sugar) was preincubated for ½ h with LL-37 before stimulating pDC (thus associating with self-DNA released by dying cells in culture) or before adding genomic human DNA and subsequently stimulating pDC.
as §1, §2

human genomic DNA = experiment: Complex formation with DNA (ethidium bromide intercalation, size exclusion HPLC); assay type: binding
Text: (A) Emission spectra of human genomic DNA intercalated with Ethimidium bromide in the presence of increasing doses of LL-37. (B) Size exclusion HPLC of LL-37 alone, mut-LL-37 alone or DNA premixed with LL-37 or mut-37. […] Absorbance scales are different to accommodate the DNA peak.

pDC [3] = experiment: pDC viability; assay type: cell-based, human; settings: not shown
proteinase 3 = target: T1, proteinase 3 (Homo sapiens, UniProt P24158); experiment: Cleavage of LL-37 from propeptide hCAP18 in activated neutrophils (Western blot); assay type: cell-based; settings: pretreatment of neutrophils, PMA activation
T1 construct: endogenous in cells
T1 sequence (P24158 28-248): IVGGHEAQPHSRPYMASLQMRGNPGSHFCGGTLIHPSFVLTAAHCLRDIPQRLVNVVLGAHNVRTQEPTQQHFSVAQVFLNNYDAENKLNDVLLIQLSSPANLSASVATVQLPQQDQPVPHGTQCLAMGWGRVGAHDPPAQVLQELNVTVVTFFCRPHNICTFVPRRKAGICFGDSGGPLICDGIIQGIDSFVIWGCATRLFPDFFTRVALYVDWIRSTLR

pDC [4] = experiment: pDC stimulation by supernatant of activated neutrophils (type I IFN); assay type: cell-based, human; settings: neutrophils pretreated with inhibitor
Text: (Left panel) IFN-α released by pDC stimulated with NET w/o Pr-3 inhibitors, CpG, w/o Pr-3 inhibitors is used as positive control.
These findings indicate that proteinase 3 inhibitors block the generation of the mature LL-37 peptide, thus inhibiting the LL-37-mediated break of innate tolerance to self-nucleic acids.

TLR-9 = target: T2, TLR-9 (Homo sapiens, UniProt Q9NR96); experiment: Inhibition of IFN-α induction in pDC by TLR-9 agonist CpG sequences; assay type: cell-based
T2 construct: PDC from healthy donors were purified from freshly collected buffy coats; endogenous in cells; host or cells: primary human pDC sorted from buffy coats of healthy donors
T2 sequence (Q9NR96 26-1032): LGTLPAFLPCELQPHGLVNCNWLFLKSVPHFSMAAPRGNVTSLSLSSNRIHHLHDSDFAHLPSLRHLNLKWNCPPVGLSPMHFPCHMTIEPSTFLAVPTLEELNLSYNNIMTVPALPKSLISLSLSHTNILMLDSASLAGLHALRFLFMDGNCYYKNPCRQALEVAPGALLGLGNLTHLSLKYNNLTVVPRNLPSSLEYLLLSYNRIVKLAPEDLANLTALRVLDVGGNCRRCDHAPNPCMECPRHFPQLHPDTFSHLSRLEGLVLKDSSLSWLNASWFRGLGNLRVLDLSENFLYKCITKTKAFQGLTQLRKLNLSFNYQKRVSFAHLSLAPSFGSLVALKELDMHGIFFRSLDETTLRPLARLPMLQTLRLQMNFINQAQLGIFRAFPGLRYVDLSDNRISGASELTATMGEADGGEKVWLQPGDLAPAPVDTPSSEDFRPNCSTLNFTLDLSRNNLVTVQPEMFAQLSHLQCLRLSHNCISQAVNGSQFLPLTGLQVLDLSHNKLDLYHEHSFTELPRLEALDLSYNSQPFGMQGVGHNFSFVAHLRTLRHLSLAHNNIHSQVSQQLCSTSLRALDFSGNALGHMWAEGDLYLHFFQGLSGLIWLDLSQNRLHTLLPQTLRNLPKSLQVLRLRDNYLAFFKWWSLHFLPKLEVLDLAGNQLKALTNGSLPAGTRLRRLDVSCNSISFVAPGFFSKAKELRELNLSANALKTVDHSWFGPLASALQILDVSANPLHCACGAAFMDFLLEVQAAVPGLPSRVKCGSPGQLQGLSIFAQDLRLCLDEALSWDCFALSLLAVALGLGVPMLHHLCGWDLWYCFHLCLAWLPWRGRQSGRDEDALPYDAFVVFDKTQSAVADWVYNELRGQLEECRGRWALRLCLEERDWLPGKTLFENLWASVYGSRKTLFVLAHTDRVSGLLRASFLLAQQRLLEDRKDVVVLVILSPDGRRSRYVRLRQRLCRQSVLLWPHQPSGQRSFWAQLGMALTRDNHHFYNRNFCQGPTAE
Protocol: as §3
(§4) PDC from healthy donors were purified from freshly collected buffy coats. Briefly, PBMC were isolated by Ficoll-Hypaque density gradient centrifugation (GE Healthcare, Piscatway, N.J.) followed by positive sorting using anti-BDCA4-conjugated magnetic microbeads (Miltenyi Biotec, Auburn, Calif.). […]
as §2

TLR7 = target: T3, TLR7 (Homo sapiens, UniProt Q9NYK1); experiment: Inhibition of IFN-α induction in pDC by TLR7 agonist imiquimod; assay type: cell-based
T3 construct: PDC from healthy donors were purified from freshly collected buffy coats; endogenous in cells; host or cells: primary human pDC sorted from buffy coats of healthy donors
T3 sequence (Q9NYK1 27-1049): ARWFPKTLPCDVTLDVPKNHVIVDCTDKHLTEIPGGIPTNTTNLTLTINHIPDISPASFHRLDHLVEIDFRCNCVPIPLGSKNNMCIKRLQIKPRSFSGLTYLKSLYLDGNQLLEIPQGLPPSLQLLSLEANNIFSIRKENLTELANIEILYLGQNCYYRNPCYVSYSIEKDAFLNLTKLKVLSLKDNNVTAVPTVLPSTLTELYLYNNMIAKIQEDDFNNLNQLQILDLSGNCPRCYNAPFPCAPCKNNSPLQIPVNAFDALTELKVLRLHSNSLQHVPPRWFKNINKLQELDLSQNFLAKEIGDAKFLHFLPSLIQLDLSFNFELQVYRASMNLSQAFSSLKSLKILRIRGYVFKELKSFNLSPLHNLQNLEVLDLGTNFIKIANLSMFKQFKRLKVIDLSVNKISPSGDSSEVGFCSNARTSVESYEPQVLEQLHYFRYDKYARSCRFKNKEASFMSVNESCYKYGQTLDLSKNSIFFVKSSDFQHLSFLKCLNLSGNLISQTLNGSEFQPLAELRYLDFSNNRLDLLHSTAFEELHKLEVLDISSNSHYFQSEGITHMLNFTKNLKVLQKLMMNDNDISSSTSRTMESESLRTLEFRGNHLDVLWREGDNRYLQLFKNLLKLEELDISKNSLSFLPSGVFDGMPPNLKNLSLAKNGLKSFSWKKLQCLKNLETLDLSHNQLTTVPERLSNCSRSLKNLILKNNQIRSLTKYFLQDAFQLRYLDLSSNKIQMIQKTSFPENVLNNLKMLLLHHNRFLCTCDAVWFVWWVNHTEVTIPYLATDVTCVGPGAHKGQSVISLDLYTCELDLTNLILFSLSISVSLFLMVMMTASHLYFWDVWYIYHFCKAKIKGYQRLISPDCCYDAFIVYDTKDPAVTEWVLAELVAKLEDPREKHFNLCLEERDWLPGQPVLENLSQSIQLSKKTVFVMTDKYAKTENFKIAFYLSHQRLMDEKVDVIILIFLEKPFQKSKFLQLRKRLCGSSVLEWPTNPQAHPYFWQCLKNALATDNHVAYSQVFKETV
Protocol: as §3, §4, §2

TCGTCGTTTTGTCGTTTTGTCGTT [phosphothiorate CpG-B]
IFN-α production by pDC stimulated with nucleic acid alone or combined with LL-37, as labelled [1]: induced significant levels of IFN-α

CN([C@@H](Cc1ccc(OS(=O)(=O)c2cccc3cnccc23)cc1)C(=O)N1CCN(c2ccccc2)CC1)S(=O)(=O)c1cccc2cnccc12 [KN62, KN-62]
Effect on IFN-α induction by LL-37 in pDC [2]: did not inhibit IFN-α induction by LL-37

LLGDFFAVSKEKIGAEFVRIVQAIKDFLRNLVPRTES [mLL-37]
pDC activation to produce IFN-α [1]: complete abrogation of pDC activation
pDC activation to produce IFN-α ([1]; listed as mutated LL-37 peptide): did not induce IFN-α
Complex formation with DNA (human genomic DNA): not able to complex with DNA

Nc1ncnc2c1ncn2[C@@H]1O[C@H](COP(=O)(O)OP(=O)(O)OP(=O)(O)O)[C@@H](O)[C@H]1O [ATP, Adenosin triphopshate]
pDC activation to produce IFN-α [1]: did not result in IFN-α production by pDC

Pertussis Toxin [PTX]
Effect on IFN-α induction by LL-37 in pDC [2]: did not inhibit IFN-α induction by LL-37

HBD-3: AMP cultured with pDC at equimolar doses (GIINTLQKYYCRVRGGRCAVLSCLPKEEQIGKCSTRGRKCCRRKK; ends and bridges not checked; cysteine pairing not given here; UniProt P81534 23-67, looked up)
pDC activation to produce IFN-α [1]: did not induce pDC activation to produce IFN-α

CCN(CC)CCCC(C)Nc1ccnc2cc(Cl)ccc12 (stereo not drawn) [Chloroquine]
Effect on IFN-α induction by LL-37 in pDC [2]: inhibited LL-37-mediated IFN-α induction in a dose-dependent manner
Effect on pDC viability (pDC [3]): no measurable effect on pDC viability

WKYMV-peptide [W peptide]
pDC activation to produce IFN-α [1]: did not result in IFN-α production by pDC

CC(C)C[C@H](NC(=O)[C@@H](NC(=O)N[C@@H](Cc1ccccc1)C(=O)O)[C@@H]1CCN=C(N)N1)C(=O)N[C@H](C=O)Cc1ccccc1 [Chymostatin]
Cleavage of the 4 kD LL-37 peptide from hCAP18 (proteinase 3): can be blocked; also recorded: block the cleavage of LL-37 from its propeptide hCAP
Capacity of activated neutrophils to stimulate pDC to produce type I IFNs (pDC [4]): abrogated; also recorded: inhibit the activation of pDC by self-DNA released by neutrophils

TTTAGGGTTAGGGTTAGGGTTAGGG (listed as DNA, chemistry not given here) [IRS]
Effect on IFN-α induction by LL-37 in pDC [2]: inhibited pDC activation to produce IFN-α
Effect on IFN-α induction by TLR-9 agonist CpG sequences in pDC (TLR-9): block IFN-α induction by TLR-9 agonist CpG-sequences
Effect on IFN-α induction by TLR7 agonist imiquimod in pDC (TLR7): not TLR7 agonist imiquimod

heparin
Effect on IFN-α induction by LL-37 in pDC [2]: completely abrogated; also recorded: inhibits the ability of LL-37 to induce IFN-α

GGGGGACGATCGTCGGGGGG [CpGA]
IFN-α induction by pDC, single stranded form complexed to LL-37 [1]: restored
IFN-α induction by pDC, single stranded form (heat and flash cooling) ([1]; multimeric complex disrupted): strongly inhibited

TCGTCGTTTTGTCGTTTTGTCGTT [phophodiesteric CpG-B]
IFN-α production by pDC stimulated with nucleic acid alone or combined with LL-37, as labelled [1]: unable to induce IFN-α

DNase I
Effect on IFN-α induction by LL-37 in pDC [2]: significantly inhibited

MeOSuc-CMK
Cleavage of the 4 kD LL-37 peptide from hCAP18 (proteinase 3): can be blocked; also recorded: block the cleavage of LL-37 from its propeptide hCAP
Capacity of activated neutrophils to stimulate pDC to produce type I IFNs (pDC [4]): abrogated; also recorded: inhibit the activation of pDC by self-DNA released by neutrophils

B1: S100-7: AMP cultured with pDC at equimolar doses (protein, UniProt P31151 2-101, looked up)
Protein S100-A7: SNTQAERSIIGMIDMFHKYTRRDDKIEKPSLLTMMKENFPNFLSACDKKGTNYLADVFEKKDKNEDKKIDFSEFLSLLGDIATDYHKQSHGAAPCSGGSQ
pDC activation to produce IFN-α [1]: did not induce pDC activation to produce IFN-α
